We go through 27 compounds from patent US9399636B2, “Substituted dipyridylamines and uses thereof” (Genentech, Inc., priority 2012, dated 2016).

A word on the Ki: it is a measure of affinity in units of concentration, obtained from inhibition or displacement. Read a high Ki as lower affinity.

The structures appear in SMILES notation.

The target in the assay is T1, DLK (Homo sapiens, UniProt Q12852).
T1 construct: N-terminally GST-tagged DLK (catalytic domain amino acid 1-520) (Carna Bioscience); GST (N); purchased Carna Bioscience
T1 sequence (Q12852 1-520): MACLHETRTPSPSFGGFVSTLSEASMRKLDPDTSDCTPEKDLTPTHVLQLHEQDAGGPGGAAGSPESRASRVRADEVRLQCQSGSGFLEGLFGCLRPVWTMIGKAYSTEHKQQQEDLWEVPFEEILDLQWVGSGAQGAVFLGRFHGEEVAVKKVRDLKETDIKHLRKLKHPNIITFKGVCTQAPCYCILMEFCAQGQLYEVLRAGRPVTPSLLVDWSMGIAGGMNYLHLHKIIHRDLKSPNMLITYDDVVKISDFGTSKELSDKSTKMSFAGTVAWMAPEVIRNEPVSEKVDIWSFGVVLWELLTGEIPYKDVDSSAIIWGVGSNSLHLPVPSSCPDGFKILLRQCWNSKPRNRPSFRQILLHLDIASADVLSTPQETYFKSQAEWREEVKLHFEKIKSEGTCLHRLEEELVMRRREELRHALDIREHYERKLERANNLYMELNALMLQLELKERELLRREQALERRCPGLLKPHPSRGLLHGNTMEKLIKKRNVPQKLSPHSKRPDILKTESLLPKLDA
The assay is described as follows: DLK TR-FRET assay. The assay is classed as biochemical. The conditions noted are these: 5 nM GST-tagged DLK (catalytic domain amino acid 1-520), 40 nM HIS-tagged MKK4 K131M substrate, 30 μM ATP, 60 minutes. As for the experimental part: DLK TR-FRET assay: DLK kinase reactions (20 μL) containing 5 nM N-terminally GST-tagged DLK (catalytic domain amino acid 1-520) (Carna Bioscience), 40 nM N-terminally HIS-tagged MKK4 K131M substrate, and 30 μM ATP in kinase reaction buffer (50 mM HEPES, pH 7.5, 0.01% Triton X-100, 0.01% Bovine γ-Globulins, 2 mM DTT, 10 mM MgCl2 and 1 mM EGTA), and testing compound 1:3 serial diluted starting at 20 uM were incubated at ambient temperature for 60 minutes in 384 well OptiPlate (Perkin Elmer). To quench kinase reactions and detect phosphorylated MKK4, 15 μL of TR-FRET antibody mixture containing 2 nM anti-phosphorylated MKK4 labeled with Europium cryptate (Cisbio) and 23 nM anti-HIS labeled with D2 (Cisbio) in detection buffer (25 mM Tris pH 7.5, 100 mM NaCl, 100 mM EDTA, 0.01% Tween-20, and 200 mM KF) was added to the reaction mixture. The detection mixture was incubated for 3 hours at ambient temperature and the TR-FRET was detected with an EnVision multilabel plate reader (Perkin-Elmer) using the LANCE/DELFIA Dual Enh label from Perkin-Elmer (excitation filter: UV2 (TRF) 320 and emission filters: APC 665 and Europium 615).
(In general: Time-resolved FRET reads energy transfer from a long-lived donor to a nearby acceptor.)

For the compound `COC1CN(c2cc(C3(C#N)CCNCC3)cc(Nc3cc(C(F)(F)F)ccn3)n2)C1` [Example 19, 6′-(3-Methoxy-azetidin-1-yl)-2′-(4-trifluoromethyl-pyridin-2-ylamino)-2,3,5,6-tetrahydro-1H-[4,4′]bipyridinyl-4-carbonitrile], affinity was put at a Ki of 5.1 nM.
As to `FC(F)c1ccnc(Nc2cc(C3CN(CC(F)(F)F)C3)cc(Cl)n2)c1` [Example 20, {6-Chloro-4-[1-(2,2,2-trifluoro-ethyl)-azetidin-3-yl]-pyridin-2-yl}-(4-difluoromethyl-pyridin-2-yl)-amine], the inhibitory constant (Ki) was 110 nM.
Compound `COc1cc(C2CCN(C(C)=O)CC2)cc(Nc2cc(C#N)ccn2)n1` [Example 21, 2-(1′-Acetyl-6-methoxy-1′,2′,3′,4′,5′,6′-hexahydro-[4,4′]bipyridinyl-2-ylamino)-isonicotinonitrile] came in with a Ki of 12 nM.
Take `CC(=O)N1CCC(c2cc(Nc3cc(C#N)ccn3)nc(OC(C)C)c2)CC1` [Example 22, 2-(1′-Acetyl-6-isopropoxy-1′,2′,3′,4′,5′,6′-hexahydro-[4,4′]bipyridinyl-2-ylamino)-isonicotinonitrile]: the Ki came out at 2.2 nM.
Compound `N#CC1(c2cc(Nc3cc(C(F)(F)F)ccn3)nc(N3CC(F)C3)c2)CCNCC1` [Example 23, 6′-(3-Fluoro-azetidin-1-yl)-2′-(4-trifluoromethyl-pyridin-2-ylamino)-2,3,5,6-tetrahydro-1H-[4,4′]bipyridinyl-4-carbonitrile] displayed a Ki of 0.32 nM.
The figure for `N#Cc1ccnc(Nc2cc(C3CN(C4COC4)C3)cc(Cl)n2)c1` [Example 24, 2-[6-Chloro-4-(1-oxetan-3-yl-azetidin-3-yl)-pyridin-2-ylamino]-isonicotinonitrile] is 140 nM; for `FC(F)c1ccnc(Nc2cc(C3CCN(C4COC4)CC3)cc(C3CC3)n2)c1` [Example 25, (6-Cyclopropyl-1′-oxetan-3-yl-1′,2′,3′,4′,5′,6′-hexahydro-[4,4′]bipyridinyl-2-yl)-(4-difluoromethyl-pyridin-2-yl)-amine] it is 0.84 nM.
In turn, `CCc1cc(C2CCN(C3COC3)CC2)cc(Nc2cc(C(F)F)ccn2)n1` [Example 26, (4-Difluoromethyl-pyridin-2-yl)-(6-ethyl-1′-oxetan-3-yl-1′,2′,3′,4′,5′,6′-hexahydro-[4,4′]bipyridinyl-2-yl)-amine] displayed a Ki of 21 nM.
In turn, `Cc1cc(C2CCN(C3COC3)CC2)cc(Nc2cc(C(F)F)ccn2)n1` [Example 27, (4-Difluoromethyl-pyridin-2-yl)-(6-methyl-1′-oxetan-3-yl-1′,2′,3′,4′,5′,6′-hexahydro-[4,4′]bipyridinyl-2-yl)-amine] came in with a Ki of 100 nM.
On to `N#Cc1ccnc(Nc2cc(C3CCN(C4COC4)CC3)cc(C3CC3)n2)c1` [Example 28, 2-(6-Cyclopropyl-1′-oxetan-3-yl-1′,2′,3′,4′,5′,6′-hexahydro-[4,4′]bipyridinyl-2-ylamino)-isonicotinonitrile], for which the Ki came out at 1.4 nM.
For `CCc1cc(C2CCN(C3COC3)CC2)cc(Nc2cc(C#N)ccn2)n1` [Example 29, 2-(6-Ethyl-1′-oxetan-3-yl-1′,2′,3′,4′,5′,6′-hexahydro-[4,4′]bipyridinyl-2-ylamino)-isonicotinonitrile], the Ki is 18 nM.
Consider `C[C@@H]1CCCN1c1cc(C2(C#N)CCN(C3COC3)CC2)cc(Nc2cc(C#N)ccn2)n1` [Example 30, 2′-(4-Cyano-pyridin-2-ylamino)-6′-((R)-2-methyl-pyrrolidin-1-yl)-1-oxetan-3-yl-2,3,5,6-tetrahydro-1H-[4,4′]bipyridinyl-4-carbonitrile], for which the Ki was 0.17 nM.
As for `N#Cc1ccnc(Nc2cc(C3(C#N)CCNCC3)cc(N3CCC(F)(F)C3)n2)c1` [Example 31, 2′-(4-Cyano-pyridin-2-ylamino)-6′-(3,3-difluoro-pyrrolidin-1-yl)-2,3,5,6-tetrahydro-1H-[4,4′]bipyridinyl-4-carbonitrile], the affinity corresponds to a Ki of 0.17 nM.
The figure for `N#Cc1ccnc(Nc2cc(C3CN(CC(F)(F)F)C3)cc(Cl)n2)c1` [Example 32, 2-{6-Chloro-4-[1-(2,2,2-trifluoro-ethyl)-azetidin-3-yl]-pyridin-2-ylamino}-isonicotinonitrile] is 220 nM; for `C[C@@H]1CCCN1c1cc(C2(C#N)CCN(C)CC2)cc(Nc2cc(C#N)ccn2)n1` [Example 33, 2′-(4-Cyano-pyridin-2-ylamino)-1-methyl-6′-((R)-2-methyl-pyrrolidin-1-yl)-2,3,5,6-tetrahydro-1H-[4,4′]bipyridinyl-4-carbonitrile] it is 0.17 nM.
The compound `N#Cc1ccnc(Nc2cc(C3(C#N)CCNCC3)cc(N3CC(F)C3)n2)c1` [Example 34, 2′-(4-Cyano-pyridin-2-ylamino)-6′-(3-fluoro-azetidin-1-yl)-2,3,5,6-tetrahydro-1H-[4,4′]bipyridinyl-4-carbonitrile] came in with a Ki of 1.9 nM.
As for `N#Cc1ccnc(Nc2cc(C3(C#N)CCN(C4COC4)CC3)cc(N3CC4CC4C3)n2)c1` (stereo not drawn) [Example 35, 6′-(3-Aza-bicyclo[3.1.0]hex-3-yl)-2′-(4-cyano-pyridin-2-ylamino)-1-oxetan-3-yl-2,3,5,6-tetrahydro-1H-[4,4′]bipyridinyl-4-carbonitrile], the figure is 0.8 nM; as for `CN1CCC(C#N)(c2cc(Nc3cc(C#N)ccn3)nc(N3CC4CC4C3)c2)CC1` (stereo not drawn) [Example 36, 6′-(3-Aza-bicyclo[3.1.0]hex-3-yl)-2′-(4-cyano-pyridin-2-ylamino)-1-methyl-2,3,5,6-tetrahydro-1H-[4,4′]bipyridinyl-4-carbonitrile], 0.17 nM; as for `N#Cc1ccnc(Nc2cc(C3(C#N)CCNCC3)cc(N3CC(F)(F)C3)n2)c1` [Example 37, 2′-(4-Cyano-pyridin-2-ylamino)-6′-(3,3-difluoro-azetidin-1-yl)-2,3,5,6-tetrahydro-1H-[4,4′]bipyridinyl-4-carbonitrile], 2.5 nM.
For `N#Cc1ccnc(Nc2cc(C3(C#N)CCNCC3)cc(N3CCC3)n2)c1` [Example 38, 6′-Azetidin-1-yl-2′-(4-cyano-pyridin-2-ylamino)-2,3,5,6-tetrahydro-1H-[4,4′]bipyridinyl-4-carbonitrile], the affinity, expressed as Ki, was 2.2 nM.
As for `C[C@@H]1CCCN1c1cc(C2(C#N)CCNCC2)cc(Nc2cc(C#N)ccn2)n1` [Example 39, 2′-(4-Cyano-pyridin-2-ylamino)-6′-((R)-2-methyl-pyrrolidin-1-yl)-2,3,5,6-tetrahydro-1H-[4,4′]bipyridinyl-4-carbonitrile], the figure is 0.17 nM.
As to `N#Cc1ccnc(Nc2cc(C3(C#N)CCNCC3)cc(N3CC4CC4C3)n2)c1` (stereo not drawn) [Example 40, 6′-(3-Aza-bicyclo[3.1.0]hex-3-yl)-2′-(4-cyano-pyridin-2-ylamino)-2,3,5,6-tetrahydro-1H-[4,4′]bipyridinyl-4-carbonitrile], the inhibitory constant (Ki) came out at 0.17 nM.
In turn, `CC(C)(C)OC(=O)N1CC(c2cc(Cl)nc(Nc3cc(C#N)ccn3)c2)C1` [Example 41, 3-[2-Chloro-6-(4-cyano-pyridin-2-ylamino)-pyridin-4-yl]-azetidine-1-carboxylic acid tert-butyl ester] yielded a Ki of 56 nM.
For `O=C1CCCN1c1cc(C2CCN(C3COC3)CC2)cc(Nc2cc(C(F)F)ccn2)n1` [Example 42, 1-[6-(4-Difluoromethyl-pyridin-2-ylamino)-1′-oxetan-3-yl-1′,2′,3′,4′,5′,6′-hexahydro-[4,4′]bipyridinyl-2-yl]-pyrrolidin-2-one], the Ki came to 6.4 nM.
As for `CCCCOc1cc(C2CCN(C3COC3)CC2)cc(Nc2cc(C(F)F)ccn2)n1` [Example 43, (6-Butoxy-1′-oxetan-3-yl-1′,2′,3′,4′,5′,6′-hexahydro-[4,4′]bipyridinyl-2-yl)-(4-difluoro-methyl-pyridin-2-yl)-amine], the figure is 3.8 nM; as for `FC1CN(c2cc(C3CCN(C4COC4)CC3)cc(Nc3cc(C(F)F)ccn3)n2)C1` [Example 44, (4-Difluoromethyl-pyridin-2-yl)-[6-(3-fluoro-azetidin-1-yl)-1′-oxetan-3-yl-1′,2′,3′,4′,5′,6′-hexahydro-[4,4′]bipyridinyl-2-yl]-amine], 6.8 nM; as for `CC(C)(C)OC(=O)N1CC(c2cc(Cl)nc(Nc3cc(C(F)F)ccn3)c2)C1` [Example 45, 3-[2-Chloro-6-(4-difluoromethyl-pyridin-2-ylamino)-pyridin-4-yl]-azetidine-1-carboxylic acid tert-butyl ester], 48 nM.
